What was measured:
[1] = biological target: T1, RNA demethylase ALKBH5 (Homo sapiens, UniProt Q6P6C2); test: Inhibition of ALKBH5 (66 to 292 residues)(unknown origin) expressed in Escherichia coli BL21(DE3) using 5'-ATTGTCA(m6A)CAGCAGA-FAM-3' as substrate incubated for 30 mins by FP assay
Target sequence in this assay (Q6P6C2 whole entry, the tested form may be a part): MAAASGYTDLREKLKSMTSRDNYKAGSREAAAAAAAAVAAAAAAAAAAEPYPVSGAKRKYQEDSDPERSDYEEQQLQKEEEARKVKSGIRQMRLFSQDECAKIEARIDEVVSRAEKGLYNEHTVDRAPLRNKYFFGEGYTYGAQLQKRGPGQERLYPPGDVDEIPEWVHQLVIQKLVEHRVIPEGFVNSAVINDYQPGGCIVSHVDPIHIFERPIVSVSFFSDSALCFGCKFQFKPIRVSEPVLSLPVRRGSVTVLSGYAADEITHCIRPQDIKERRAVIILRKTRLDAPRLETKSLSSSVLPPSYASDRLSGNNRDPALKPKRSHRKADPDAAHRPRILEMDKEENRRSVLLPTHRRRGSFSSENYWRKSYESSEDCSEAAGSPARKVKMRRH

[2] = biological target: Alpha-ketoglutarate-dependent dioxygenase FTO (Homo sapiens, UniProt Q9C0B1); test: Inhibition of FTO (32 to 505 residues)(unknown origin) expressed in Escherichia coli BL21(DE3) by FP assay
Sequence of Alpha-ketoglutarate-dependent dioxygenase FTO (Q9C0B1 whole entry, the tested form may be a part): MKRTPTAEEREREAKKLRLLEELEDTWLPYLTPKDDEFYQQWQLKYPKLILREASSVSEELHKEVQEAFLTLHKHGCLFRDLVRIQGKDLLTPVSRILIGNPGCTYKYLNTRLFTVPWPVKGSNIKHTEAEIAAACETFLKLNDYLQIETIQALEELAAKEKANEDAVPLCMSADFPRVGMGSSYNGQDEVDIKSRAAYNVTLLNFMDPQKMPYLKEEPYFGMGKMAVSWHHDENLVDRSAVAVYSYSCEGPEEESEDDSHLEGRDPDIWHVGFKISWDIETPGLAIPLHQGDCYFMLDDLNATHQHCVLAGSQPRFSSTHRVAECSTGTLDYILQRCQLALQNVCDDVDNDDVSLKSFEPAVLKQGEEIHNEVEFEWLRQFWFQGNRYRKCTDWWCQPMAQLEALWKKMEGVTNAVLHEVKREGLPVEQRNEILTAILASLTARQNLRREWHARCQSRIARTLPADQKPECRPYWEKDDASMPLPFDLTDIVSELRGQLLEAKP

[3] = biological target: T1, RNA demethylase ALKBH5; test: Inhibition of ALKBH5 (66 to 292 residues)(unknown origin) expressed in Escherichia coli BL21(DE3) using 5'-ATTGTCA(m6A)CAGCAGA-FAM-3' as substrate incubated for 30 mins in presence of 200 uM of 2-OG by FP based competitive binding assay
Target sequence in this assay (Q6P6C2 whole entry, the tested form may be a part): as the sequence (Q6P6C2 whole entry, the tested form may be a part) above

[4] = biological target: T1, RNA demethylase ALKBH5; test: Inhibition of ALKBH5 (66 to 292 residues)(unknown origin) expressed in Escherichia coli BL21(DE3) using 5'-ATTGTCA(m6A)CAGCAGA-FAM-3' as substrate incubated for 30 mins in presence of 20 uM of 2-OG by FP based competitive binding assay
Target sequence in this assay (Q6P6C2 whole entry, the tested form may be a part): as above

[5] = biological target: T1, RNA demethylase ALKBH5; test: Inhibition of ALKBH5 (66 to 292 residues)(unknown origin) expressed in Escherichia coli BL21(DE3) using 5'-ATTGTCA(m6A)CAGCAGA-FAM-3' as substrate incubated for 30 mins in presence of 2 uM of 2-OG by FP based competitive binding assay
Target sequence in this assay (Q6P6C2 whole entry, the tested form may be a part): as above

[6] = biological target: T1, RNA demethylase ALKBH5; test: Inhibition of ALKBH5 (66 to 292 residues)(unknown origin) expressed in Escherichia coli BL21(DE3) using 5'-ATTGTCA(m6A)CAGCAGA-FAM-3' as substrate incubated for 30 mins in presence of 0.2 uM of 2-OG by FP based competitive binding assay
Target sequence in this assay (Q6P6C2 whole entry, the tested form may be a part): as above

[7] = biological target: T1, RNA demethylase ALKBH5; test: Binding affinity to ALKBH5 (66 to 292 residues)(unknown origin) expressed in Escherichia coli BL21(DE3) assessed as increase in melting temperature incubated for 30 mins by thermal shift assay
Target sequence in this assay (Q6P6C2 2-394 limits assumed): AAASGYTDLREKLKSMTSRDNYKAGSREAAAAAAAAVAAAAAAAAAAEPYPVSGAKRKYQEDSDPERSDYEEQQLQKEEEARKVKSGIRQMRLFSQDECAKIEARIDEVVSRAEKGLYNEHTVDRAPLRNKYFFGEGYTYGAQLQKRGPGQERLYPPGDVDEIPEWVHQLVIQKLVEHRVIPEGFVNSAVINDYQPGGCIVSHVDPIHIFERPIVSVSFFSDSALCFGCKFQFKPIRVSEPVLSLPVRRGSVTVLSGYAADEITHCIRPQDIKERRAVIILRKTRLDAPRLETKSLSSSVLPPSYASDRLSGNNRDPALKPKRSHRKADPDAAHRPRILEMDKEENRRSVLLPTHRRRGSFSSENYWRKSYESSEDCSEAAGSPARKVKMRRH

Row | SMILES | IC50 [1] [µM] | IC50 [2] [µM] | other results
1 | O=C(c1cnc2cc(-c3cccc(Cl)c3)nn2c1)c1cc([N+](=O)[O-])ccc1O | 24.6 | > 200 | –
2 | O=C(O)c1ccc(-c2cc3ncc(C(=O)c4cc([N+](=O)[O-])ccc4O)cn3n2)cc1 | 56.5 | 5.98 | –
3 | Cc1ccc(COC(=O)c2ccc(-c3cc4ncc(C(=O)c5cc([N+](=O)[O-])ccc5O)cn4n3)cc2)cc1 | 41 | > 200 | –
4 | O=C(c1cnc2cc(-c3ccc(Cl)cc3)nn2c1)c1ccccc1O | > 200 | > 200 | –
5 | O=C(c1cnc2cc(-c3ccc(C(F)(F)F)cc3)nn2c1)c1cc([N+](=O)[O-])ccc1O | 23.3 | > 200 | –
6 | O=C(c1cnc2cc(-c3ccccc3)nn2c1)c1cc([N+](=O)[O-])ccc1O | 45.1 | – | –
7 | O=C(OCc1ccc(Cl)cc1)c1ccc(-c2cc3ncc(C(=O)c4cc([N+](=O)[O-])ccc4O)cn3n2)cc1 | 10.7 | > 200 | –
8 | O=C(c1cnc2cc(-c3ccc(Cl)cc3)nn2c1)c1c(O)ccc([N+](=O)[O-])c1O | 14.4 | 8.39 | –
9 | O=C(c1cnc2cc(-c3ccc(O)cc3)nn2c1)c1cc([N+](=O)[O-])ccc1O | 46.4 | 16.6 | –
10 | O=C(c1cnc2cc(-c3ccc(Cl)cc3)nn2c1)c1cccc([N+](=O)[O-])c1O | 62.7 | > 200 | –
11 | O=C(O)c1ccnc(C(=O)NS(=O)(=O)c2ccccc2)c1 | 67.7 | – | IC50 [3]: 269 µM; IC50 [4]: 211 µM; IC50 [5]: 135 µM; IC50 [6]: 87.6 µM
12 | O=C(OCc1ccccc1)c1ccc(-c2cc3ncc(C(=O)c4cc([N+](=O)[O-])ccc4O)cn3n2)cc1 | 7.88 | > 200 | –
13 | COc1ccc([N+](=O)[O-])cc1C(=O)c1cnc2cc(-c3ccc(Cl)cc3)nn2c1 | > 200 | > 200 | –
14 | O=C(OCc1ccc(C(F)(F)F)cc1)c1ccc(-c2cc3ncc(C(=O)c4cc([N+](=O)[O-])ccc4O)cn3n2)cc1 | 4.64 | > 200 | –
15 | O=C(O)c1ccc(O)c(C(=O)c2cnc3cc(-c4ccc(Cl)cc4)nn3c2)c1 | 141 | > 200 | –
16 | O=C(c1cnc2cc(-c3ccccc3Cl)nn2c1)c1cc([N+](=O)[O-])ccc1O | 102 | > 200 | –
17 | COC(=O)c1ccc(-c2cc3ncc(C(=O)c4cc([N+](=O)[O-])ccc4O)cn3n2)cc1 | 9.12 | > 200 | –
18 | O=C(c1cnc2cc(-c3ccc(Cl)cc3)nn2c1)c1cc([N+](=O)[O-])ccc1O | 15.6 | > 200 | ΔTm [7]: > 1 °C
19 | Cc1ccc(-c2cc3ncc(C(=O)c4cc([N+](=O)[O-])ccc4O)cn3n2)cc1 | > 200 | > 200 | –
20 | O=C(c1cnc2cc(-c3ccc(Cl)cc3)nn2c1)c1cc(C(F)(F)F)ccc1O | > 200 | > 200 | –
